According to PubChem BioAssay (NCI):
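Growth conditions: 96-well plates. Treatment: test compound, 48 hours, 5 concentrations. Analysis: linear interpolation between bracketing concentrations; unreached endpoints set to highest concentration. TGI: total growth inhibition.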

Experiments:
Assay in all cases: NCI tumour cell line growth inhibition, 48 h
[1] = system: ACHN renal
[2] = system: COLO 205 colon
[3] = system: HOP-62 NSCLC
[4] = system: M14 melanoma
[5] = system: RPMI-8226 leukemia
[6] = system: SF-268 CNS
[7] = system: SK-MEL-28 melanoma
[8] = system: SNB-75 CNS
[9] = system: SR leukemia
[10] = system: TK-10 renal

With `Cn1c(-c2ccc[se]2)ccc1-c1ccc(C=O)[se]1` the TGI [1] was > 100 µM, the TGI [2] was > 49.4 µM and the TGI [3] was 35.3 µM. For the same compound, the TGI [4] was > 100 µM, the TGI [5] was > 70.2 µM and the TGI [6] was 59.1 µM. For the same compound, the TGI [7] was > 100 µM, the TGI [8] was > 65.1 µM and the TGI [9] was > 100 µM. It also gave a TGI [10] of 0.439 µM.

In the case of `COC(C/C(=C/CO[Si](C(C)C)(C(C)C)C(C)C)C(=O)N(C(=O)OC(C)(C)C)c1ccccc1I)OC`, the TGI [1] is reported as > 100 µM, the TGI [2] is reported as > 100 µM and the TGI [3] is reported as > 100 µM. The TGI [4] was > 100 µM, the TGI [5] was > 100 µM and the TGI [6] was > 100 µM. For the same compound, the TGI [7] was > 100 µM, the TGI [8] was > 100 µM and the TGI [9] was > 100 µM. The TGI [10] was > 100 µM.

In the case of `CC1(C)OC[C@H](C(=N)OCc2ccccc2)O1`, the TGI [1] is reported as > 100 µM, the TGI [2] is reported as > 100 µM and the TGI [3] is reported as > 100 µM. The TGI [4] was > 100 µM, the TGI [5] was > 100 µM and the TGI [6] was > 100 µM. For the same compound, the TGI [7] was > 100 µM, the TGI [8] was > 100 µM and the TGI [9] was > 100 µM. The TGI [10] was > 100 µM.

With `COc1cccc2c1NC(=O)Cc1c-2[nH]c2ccccc12` the TGI [1] was > 100 µM, the TGI [2] was > 100 µM and the TGI [3] was > 100 µM. For the same compound, the TGI [4] was > 100 µM, the TGI [5] was > 100 µM and the TGI [6] was > 100 µM. The TGI [7] was > 100 µM, the TGI [8] was > 100 µM and the TGI [9] was > 100 µM. For the same compound, the TGI [10] was > 100 µM.

In the case of `CCC(=O)Nc1cccc(N=Cc2ccc(OC(=O)/C=C\c3ccccc3)cc2)c1`, the TGI [1] is reported as > 75 µM, the TGI [2] is reported as > 75 µM and the TGI [3] is reported as > 75 µM. For the same compound, the TGI [4] was > 75 µM, the TGI [5] was > 75 µM and the TGI [6] was > 75 µM. The TGI [7] was > 75 µM, the TGI [8] was > 75 µM and the TGI [9] was > 75 µM. For the same compound, the TGI [10] was > 75 µM.

`COc1cc(CC(C)=O)cc(OC)c1` was tested, and the TGI [1] was > 100 µM, the TGI [2] was > 100 µM and the TGI [3] was > 100 µM. For the same compound, the TGI [4] was > 100 µM, the TGI [5] was > 100 µM and the TGI [6] was > 100 µM. The TGI [7] was > 100 µM, the TGI [8] was > 100 µM and the TGI [9] was 85.4 µM. For the same compound, the TGI [10] was > 100 µM.
